Laboratory results: patent US20210401931A1, “METHODS AND MATERIALS FOR TREATING CANCER” (Mayo Foundation for Medical Education and Research, priority 2018, published 2021)
Ends that are not written are not given here.

System: NFκB target genes
Test: Expression of NFκB target genes in PC-3 cells (RNA-seq, RT-qPCR)
Format: cell-based, human
Settings: PC-3 cells expressing peptide, TNFα 20 ng/mL, 24 hours
Protocol: FIGS. 4A-G. RB globally regulates NFkB transcriptional program in cells. […] (F, G) PC-3 cell were treated with or without palbociclib (5 μM) for 24 hours or PC-3 cells were infected with lentivirus expressing control shRNA or RB-specific shRNA following puromycin selection after 48 hours infection. Cells were harvested for RT-qPCR (F) and ChIP-qPCR (G) analysis of p65 binding at the promotor of PD-L1, GADD45B, NR4A2, and CD83. All data were shown as mean values±SD (n=3). * P<0.05, ** P<0.01, ***P<0.001.
FIGS. 16A-K. Mutual exclusivity of PTEN and MAP3K7 gene deletion in human cancers and CDK4/6 inhibition-mediated blockage of MAP3K7 deficiency-induced death of PTEN-null cells. (A) Genetic alterations of MAP3K7 and PTEN genes in the TCGA prostate cancer dataset. (B) Genetic alterations of MAP3K7 and PTEN genes in lymphoid neoplasm diffuse large B-cell lymphoma, stomach adenocarcinoma, pancreatic cancer, liver cancer, bladder urothelial carcinoma, and lung adenocarcinoma. (C-E) PC-3 cells were infected with lentivirus expressing control or MAP3K7-specific shRNAs. 72 hours after infection, cells were harvested for western blotting (C), cell growth assay (D), and colony formation assay (E). All data were shown as mean values±SD (n=3). ns, not significant, * P<0.05 comparing to the shControl group. (F-H) LNCaP-RF prostate cancer cells were infected with lentivirus expressing control or MAP3K7-specific shRNAs. 72 hours after infection, cells were harvested for western blotting (F), cell growth assay (G), and colony formation assay (H). All data are shown as mean values±SD (n=3). ns, not significant, * P<0.05 comparing to the shControl group. (I-K) PC-3 cells were infected with lentivirus expressing control, MAP3K7 or CHD1-specific shRNAs. 72 hours after infection, cells were treated with DMSO or palbociclib (5 μM). […]
FIGS. 17A-I. Negative regulation of MAP3K7-IKK-NFκB and CHD1-NFκB signaling by RB. […] 72 hours after infection and puromycin selection, cells were injected s.c. into the right flank of NSG mice, and tumor growth was measured for 21 days. […]

In the case of “RL-S249D/T252D: S249/T252 phospho-mimicking R-Linker (RL) peptide: fragment of RB-N containing 21 amino acids surrounding S249/T252, expressed SFB-tagged or by lentivirus (NGDPRDPRRGQNRSARIAKQL; also: expressed SFB-tagged (tag left off))”, the “TNFα-induced expression of NFκB target genes” value is reported as “blocked”.
